Reference: ChEMBL document CHEMBL5512660, “Synthesis of LAVR-289, a new [(Z)-3-(acetoxymethyl)-4-(2,4-diaminopyrimidin-6-yl)oxy-but-2-enyl]phosphonic acid prodrug with pronounced antiviral activity against DNA viruses” (Eur J Med Chem, 2024)

How the values were obtained:
[1] = Selectivity index, ratio of CC50 for human HEL cells to EC50 for Vaccinia virus […]; assay type: toxicity; details: read-out: Selectivity Index
Vaccinia virus = experiment: Antiviral activity against Vaccinia virus […] infected in human HEL cells assessed as reduction in plaque formation measured after 3 days; assay type: functional, organism-based; details: Orthopoxvirus vaccinia, 72 h
Cytomegalovirus [2] = experiment: Antiviral activity against human cytomegalovirus strain AD-169 infected in human HEL cells assessed as reduction in virus-induced cytopathic effect measured after 3 days; assay type: functional, organism-based; details: Human betaherpesvirus 5, AD-169, HEL, 72 h
Human alphaherpesvirus 2 = experiment: Antiviral activity against human herpes virus type 2 strain 07/1 infected in human HEL cells assessed as reduction in plaque formation measured after 3 days; assay type: functional, organism-based; details: Human alphaherpesvirus 2, 07/1, HEL, 72 h
[3] = Cytostatic activity against human HEL cells assessed as reduction in cell growth measured after 24 hrs; assay type: toxicity, cell-based
[4] = Selectivity index, ratio of CC50 for human HEL cells to EC50 for thymidine-kinase deficient acyclovir-resistant Varicella zoster virus; assay type: toxicity; details: read-out: Selectivity Index
[5] = Cytotoxicity against human HEL cells assessed as microscopically detectable alterations in cell morphology measured after 24 hrs; assay type: toxicity, cell-based; details: read-out: MCC50
Human alphaherpesvirus 3 [6] = experiment: Antiviral activity against thymidine-kinase expressing Varicella zoster virus wild type strain OKA infected in human HEL cells assessed as reduction in plaque formation measured after 3 days; assay type: functional, organism-based; details: Human alphaherpesvirus 3, OKA, 72 h
Human alphaherpesvirus 1 [7] = experiment: Antiviral activity against thymidine-kinase deficient acyclovir-resistant human herpes virus type 1 infected in human HEL cells assessed as reduction in plaque formation measured after 3 days; assay type: functional, organism-based; details: Human alphaherpesvirus 1, HEL, 72 h
Human alphaherpesvirus 3 [8] = experiment: Antiviral activity against thymidine-kinase deficient acyclovir-resistant Varicella zoster virus strain 07/1 infected in human HEL cells assessed as reduction in plaque formation measured after 3 days; assay type: functional, organism-based; details: Human alphaherpesvirus 3, 07/1, HEL, 72 h
[9] = Selectivity index, ratio of CC50 for human HEL cells to EC50 for thymidine-kinase deficient acyclovir-resistant human herpes virus type 1; assay type: toxicity; details: read-out: Selectivity Index
Human alphaherpesvirus 1 [10] = experiment: Antiviral activity against thymidine-kinase expressing human herpes virus type 1 KOS infected in human HEL cells assessed as reduction in plaque formation measured after 3 days; assay type: functional, organism-based; details: Human alphaherpesvirus 1, KOS, 72 h
Cytomegalovirus [11] = experiment: Antiviral activity against human cytomegalovirus strain Davis infected in human HEL cells assessed as reduction in virus-induced cytopathic effect measured after 3 days; assay type: functional, organism-based; details: Human betaherpesvirus 5, Davis, 72 h
Human alphaherpesvirus 3 [12] = experiment: Antiviral activity against thymidine-kinase expressing Varicella zoster virus wild type strain YS infected in human HEL cells assessed as reduction in plaque formation measured after 3 days; assay type: functional, organism-based; details: Human alphaherpesvirus 3, YS, 72 h
Human alphaherpesvirus 3 [13] = experiment: Antiviral activity against thymidine-kinase deficient acyclovir-resistant Varicella zoster virus strain YS/R infected in human HEL cells assessed as reduction in plaque formation measured after 3 days; assay type: functional, organism-based; details: Human alphaherpesvirus 3, YS/R, 72 h

Row | Structure (SMILES) | selectivity ratio [1] | EC50 (Vaccinia virus) [µM] | EC50 (Cytomegalovirus [2]) [µM] | EC50 (Human alphaherpesvirus 2) [nM] | CC50 at 24 h [3] [µM] | selectivity ratio [4] | MCC at 24 h [5] [µM] | EC50 (Human alphaherpesvirus 3 [6]) [nM] | EC50 (Human alphaherpesvirus 1 [7]) [µM] | EC50 (Human alphaherpesvirus 3 [8]) [nM] | selectivity ratio [9] | EC50 (Human alphaherpesvirus 1 [10]) [nM] | EC50 (Cytomegalovirus [11]) [µM] | EC50 (Human alphaherpesvirus 3 [12]) [nM] | EC50 (Human alphaherpesvirus 3 [13]) [µM]
1 | CCCCCCCCCCCCCCCCOCCCOP(=O)(C/C=C(\COC(C)=O)COc1cc(N)nc(N)n1)OCOC(=O)OC(C)C (configuration not stated) | 46 | 0.05 | 0.021 | 15 | 2.32 | 129 | 100 | 4 | 0.009 | 18 | 273 | 430 |  |  | 
2 | Nc1nc2c(ncn2COC(CO)CO)c(=O)[nH]1 [GANCICLOVIR] |  | > 100 | 7.5 | 60 | 130 |  | > 350 |  |  |  |  |  |  |  | 
3 | CC(C)OC(=O)OCOP(=O)(C/C=C/COc1cc(N)nc(N)n1)OCOC(=O)OC(C)C |  |  | 44.7 | 1800 | > 100 |  | > 100 | 860 | 5.75 | 1250 |  | 3750 | 36.6 |  | 
4 | CC(=O)OC/C(=C\CP(=O)(OCOC(=O)OC(C)C)OCOC(=O)OC(C)C)COc1cc(N)nc(N)n1 |  | 4.1 |  | 350 | 15.4 |  | > 100 | 90 | 0.4 | 220 |  | 600 |  |  | 
5 | CCCCCCCCCCCCCCCCOCCCOP(=O)(C/C=C/COc1cc(N)nc(N)n1)OCOC(=O)OC(C)C (configuration not stated) |  |  | 7.08 | 39000 | 14.5 |  | 100 | 180 | 42 | 240 |  | 39000 | 7.26 |  | 
6 | Nc1ccn(C[C@@H](CO)OCP(=O)(O)O)c(=O)n1 [CIDOFOVIR ANHYDROUS] | 2 | 29 | 0.73 |  | 64 |  | > 350 |  | 3.8 |  |  |  |  |  | 
7 | CC(C)(C)C(=O)OCOP(=O)(C/C=C/COc1cc(N)nc(N)n1)OCOC(=O)C(C)(C)C |  | 32.5 | 44.7 | 13400 | 5.1 |  | > 100 | 800 | 13.4 | 1400 |  | 13400 | 44.7 | 2400 | 1.7
8 | O=c1[nH]c(=O)n([C@H]2C[C@H](O)[C@@H](CO)O2)cc1/C=C/Br [BRIVUDINE] |  | 5.8 |  |  | > 150 |  | > 150 | 9 |  |  |  |  |  |  | 85
9 | Nc1nc2c(ncn2COCCO)c(=O)[nH]1 [ACYCLOVIR] |  | > 250 |  |  | 470 |  | > 300 |  |  |  |  |  |  |  | 66
10 | CC(=O)OCC(=CCP(=O)(OCOC(=O)C(C)(C)C)OCOC(=O)C(C)(C)C)COc1cc(N)nc(N)n1 |  | 2.9 | 8.56 | 1100 | 2.03 |  | 100 | 140 | 0.6 | 120 |  | 600 | 4.06 | 360 | 0.18
